Experimental data as given in patent US20040044006A1, “Methods of use of quinolone compounds against pneumococcal and haemophilus bacteria” (priority 1999, published 2004).
Values after ≈ are worked out from the molar mass of the structure shown. Where two headings read alike, the source gives them in different places.

Columns and labels:
[1] = system: pneumococci with ciprofloxacin MICs ≧8 μg/ml; assay: Quinolone agar dilution MICs of 28 ciprofloxacin resistant pneumococcal strains, correlated with QRDR mutations; format: cell-based, Streptococcus pneumoniae
Procedure: Additionally these strains were tested for mutations in parC, gyrA, parE, and gyrB (Pan, et al. Antimicrob. Agents Chemother. 40:2321-2326, 1996) and for efflux mechanism (Brenwald, et ail., Antimicrob. Agents Chemother. 42:2032-2035, 1998).
Gemifloxacin susceptibility powder was obtained from SmithKline Beecham Laboratories, Harlow, UK. Agar dilution methodology was performed on 28 strains as described previously (M. R. Jacobs, Clin. Infect. Dis. 15: 119-127, […] and M. R. Jacobs, Rev. Med. Microbiol. 6:77-93, 1995), using Mueller-Hinton altar (BBL Microbiology Systems, Cockeysville, Md.) supplemented with 5% sheep blood. Standard quality control strains, including Streptococcus pneumoniae ATCC 49619, were included in each run of agar dilution MICs.

[2] = system: penicillin susceptible and resistant pneumococcal strains (2 quinolone resistant); assay: Time-kill testing of 12 pneumococcal strains; format: cell-based, Streptococcus pneumoniae
Procedure: For time-kill studies, glass tubes containing 5 ml cation-adjusted Mueller-Hinton broth (Difco)+5% lysed horse blood with doubling antibiotic concentrations were inoculated with 5×10^5 to 5×10^6 cfu/ml and incubated at 35° C. in a shaking water bath. […] Growth controls with inoculum but no antibiotic were included with each experiment (Pankuch, et al., Antimicrob. Agents Chemother. 38:2065-2072, 1994; Pankuch, et al., Antimicrob. Agents Chemother. 40:1653-1656, 1996).
Lysed horse blood was prepared as described previously. The bacterial inoculum was prepared by diluting a 16 h broth (medium as above) culture in the same medium. Dilutions required to obtain the correct inoculum (5×10^5-5×10^6 cfu/ml) were determined by prior viability studies using each strain (Pankuch, et al., Antimicrob. Agents Chemother. 38:2065-2072, 1994; Pankuch, et al., Antimicrob. Agents Chemother. 40: 1653-1656, 1996).
To inoculate each tube of serially diluted antibiotic, 50 μl of diluted inoculum was delivered by pipette beneath the surface of the broth. Tubes were then vortexed and plated for viability counts within 10 min (approximately 0.2 h). The original inoculum was determined by using the untreated growth control. Only tubes containing an initial inoculum within the range of 5×10^5 to 5×10^6 cfu/ml were acceptable (Pankuch, et al., Antimicrob. Agents Chemother. 38:2065-2072, 1994; Pankuch, et al., Antimicrob. Agents Chemother. 40:1653-1656, 1996).
Viability counts of antibiotic-containing suspensions were performed by plating ten-fold dilutions of 0.1 ml aliquots from each tube in sterile Mueller-t-Hinton broth onto trypticase soy agar 5% sheep blood agar plates (BBL). Recovery plates were incubated for up to 72 h. Colony Counts were performed on plates yielding 30-300 colonies. The lower limit of sensitivity of colony counts was 300 cfu/ml (Pankuch, et al., Antimicrob. Agents Chemother. 38:2065-2072, 1994; Pankuch, et al., Antimicrob. Agents Chemother. 40:1653-1656, 1996).
Time-kill assays were analysed by determining the number of strains which yielded a log10 cfu/ml of −1, −2 and −3 at 0, 3, 6, 12 and 24 h, compared to counts at time 0 h. Antimicrobials were considered bactericidal at the lowest concentration that reduced the original inoculum by ≧3 log10 cfu/ml (99.9%) at each of the time periods, and bacteriostatic if the inoculum was reduced by 0-3 log10 cfu/ml. […] The problem of bacterial carryover was addressed as described previously. For macrolide time-kill testing, only strains with MICs≦4.0 μg/ml were tested (Pankuch, et al., Antimicrob. Agents Chemother. 38:2065-9072, 1994; Pankuch, et al., Antimicrob. Agents Chemother. 40:1653-1656, 1996).

N[C@@H]1[C@H]2CN(c3nc4c(cc3F)c(=O)c(C(=O)O)cn4-c3ccc(F)cc3F)C[C@@H]12 [Trovafloxacin, trovafloxacin]
MIC50 ([1]; Streptococcus pneumoniae): 1 µg/mL (≈ 2.4 µM)
MIC90 ([1]; Streptococcus pneumoniae): 4 µg/mL (≈ 9.61 µM)
MIC ([1]; Streptococcus pneumoniae, read-out: MICs in strains with three or four QRDR mutations, 20 strains, bound holds in all 20 (ciprofloxacin, levofloxacin, sparfloxacin), 19 (grepafloxacin), 10 (trovafloxacin), 18 (gemifloxacin)): > 2 µg/mL
MIC ([1]; Streptococcus pneumoniae, read-out: MICs in strains with three or four QRDR mutations, 21 strains, bound holds in all 21 (ciprofloxacin, levofloxacin, sparfloxacin), 20 (grepafloxacin), 11 (trovafloxacin), 19 (gemifloxacin)): ≥ 2 µg/mL
MIC ([1]; Streptococcus pneumoniae, strain 1, ParC S79-F, ParE I460-V, GyrA S81-F, GyrB None): 2 µg/mL (≈ 4.8 µM)
MIC ([1]; Streptococcus pneumoniae, strain 1, ParC S79-F, ParE I460-V, GyrA S83-F, GyrB None): 2 µg/mL (≈ 4.8 µM)
MIC ([1]; Streptococcus pneumoniae, strain 2, ParC S79-Y, ParE I460-V, GyrA None, GyrB None): 0.25 µg/mL (≈ 0.6 µM)
MIC ([1]; Streptococcus pneumoniae, strain 3, ParC D83-N, ParE I460-V, GyrA S81-F, GyrB None): 0.25 µg/mL (≈ 0.6 µM)
MIC ([1]; Streptococcus pneumoniae, strain 3, ParC D83-N, ParE I460-V, GyrA S83-F, GyrB None): 0.25 µg/mL (≈ 0.6 µM)
MIC ([1]; Streptococcus pneumoniae, strain 4, ParC S79-F, ParE I460-V, GyrA S81-F, GyrB None): 0.25 µg/mL (≈ 0.6 µM)
MIC ([1]; Streptococcus pneumoniae, strain 4, ParC S79-F, ParE I460-V, GyrA S83-F, GyrB None): 0.25 µg/mL (≈ 0.6 µM)
MIC ([1]; Streptococcus pneumoniae, strain 5, ParC R95-C, ParE D435-N, GyrA S81-F, GyrB None): 0.25 µg/mL (≈ 0.6 µM)
MIC ([1]; Streptococcus pneumoniae, strain 5, ParC R95-C, ParE D435-N, GyrA S83-F, GyrB None): 0.25 µg/mL (≈ 0.6 µM)
MIC ([1]; Streptococcus pneumoniae, strain 6, ParC S79-Y, ParE I460-V, GyrA E85-K, GyrB None): 2 µg/mL (≈ 4.8 µM)
MIC ([1]; Streptococcus pneumoniae, strain 6, ParC S79-Y, ParE I460-V, GyrA E87-K, GyrB None): 2 µg/mL (≈ 4.8 µM)
MIC ([1]; Streptococcus pneumoniae, strain 7, ParC None, ParE I460-V, GyrA None, GyrB None): 0.5 µg/mL (≈ 1.2 µM)
MIC ([1]; Streptococcus pneumoniae, strain 8, ParC S79-Y, ParE None, GyrA None, GyrB None): 0.5 µg/mL (≈ 1.2 µM)
MIC ([1]; Streptococcus pneumoniae, strain 9, ParC S79-Y, ParE None, GyrA None, GyrB None): 1 µg/mL (≈ 2.4 µM)
MIC ([1]; Streptococcus pneumoniae, strain 10, ParC S79-F, ParE I460-V, GyrA S81-C, GyrB None): 1 µg/mL (≈ 2.4 µM)
MIC ([1]; Streptococcus pneumoniae, strain 10, ParC S79-F, ParE I460-V, GyrA S83-C, GyrB None): 1 µg/mL (≈ 2.4 µM)
MIC ([1]; Streptococcus pneumoniae, strain 11, ParC S79-F, ParE I460-V, GyrA S81-F, GyrB None): 1 µg/mL (≈ 2.4 µM)
MIC ([1]; Streptococcus pneumoniae, strain 11, ParC S79-F, ParE I460-V, GyrA S83-F, GyrB None): 1 µg/mL (≈ 2.4 µM)
MIC ([1]; Streptococcus pneumoniae, strain 12, ParC S79-F, ParE I460-V, GyrA None, GyrB D435-N): 1 µg/mL (≈ 2.4 µM)
MIC ([1]; Streptococcus pneumoniae, strain 13, ParC S79-F, ParE I460-V, GyrA None, GyrB E474-K): 1 µg/mL (≈ 2.4 µM)
MIC ([1]; Streptococcus pneumoniae, strain 14, ParC S79-F, ParE I460-V, GyrA S81-F, GyrB None): 1 µg/mL (≈ 2.4 µM)
MIC ([1]; Streptococcus pneumoniae, strain 14, ParC S79-F, ParE I460-V, GyrA S83-F, GyrB None): 1 µg/mL (≈ 2.4 µM)
MIC ([1]; Streptococcus pneumoniae, strain 15, ParC 79-F, ParE I460-V, GyrA S83-F, GyrB None): 1 µg/mL (≈ 2.4 µM)
MIC ([1]; Streptococcus pneumoniae, strain 15, ParC S79-F, ParE I460-V, GyrA S81-F, GyrB None): 1 µg/mL (≈ 2.4 µM)
MIC ([1]; Streptococcus pneumoniae, strain 16, ParC S79-F, ParE I460-V, GyrA S81-F, GyrB None): 2 µg/mL (≈ 4.8 µM)
MIC ([1]; Streptococcus pneumoniae, strain 16, ParC S79-F, ParE I460-V, GyrA S83-F, GyrB None): 2 µg/mL (≈ 4.8 µM)
MIC ([1]; Streptococcus pneumoniae, strain 17, ParC D83-N, ParE None, GyrA S81-F, GyrB None): 2 µg/mL (≈ 4.8 µM)
MIC ([1]; Streptococcus pneumoniae, strain 17, ParC D83-N, ParE None, GyrA S83-F, GyrB None): 2 µg/mL (≈ 4.8 µM)
MIC ([1]; Streptococcus pneumoniae, strain 18, ParC S79-F, ParE I460-V, GyrA S81-F, GyrB None): 2 µg/mL (≈ 4.8 µM)
MIC ([1]; Streptococcus pneumoniae, strain 18, ParC S79-F, ParE I460-V, GyrA S83-F, GyrB None): 2 µg/mL (≈ 4.8 µM)
MIC ([1]; Streptococcus pneumoniae, strain 19, ParC S79-F, ParE I460-V, GyrA S81-F, GyrB None): 2 µg/mL (≈ 4.8 µM)
MIC ([1]; Streptococcus pneumoniae, strain 19, ParC S79-F, ParE I460-V, GyrA S83-F, GyrB None): 2 µg/mL (≈ 4.8 µM)
MIC ([1]; Streptococcus pneumoniae, strain 20, ParC S79-F, ParE I460-V, GyrA E85-K, GyrB None): 2 µg/mL (≈ 4.8 µM)
MIC ([1]; Streptococcus pneumoniae, strain 20, ParC S79-F, ParE I460-V, GyrA E87-K, GyrB None): 2 µg/mL (≈ 4.8 µM)
MIC ([1]; Streptococcus pneumoniae, strain 21, ParC S79-F, ParE I460-V, GyrA S81-F, GyrB None): 1 µg/mL (≈ 2.4 µM)
MIC ([1]; Streptococcus pneumoniae, strain 21, ParC S79-F, ParE I460-V, GyrA S83-F, GyrB None): 1 µg/mL (≈ 2.4 µM)
MIC ([1]; Streptococcus pneumoniae, strain 22, ParC S79-F, ParE I460-V, GyrA S81-Y, GyrB None): 2 µg/mL (≈ 4.8 µM)
MIC ([1]; Streptococcus pneumoniae, strain 22, ParC S79-F, ParE I460-V, GyrA S83-Y, GyrB None): 2 µg/mL (≈ 4.8 µM)
MIC ([1]; Streptococcus pneumoniae, strain 23, ParC S79-Y, ParE None, GyrA S81-A, GyrB None): 2 µg/mL (≈ 4.8 µM)
MIC ([1]; Streptococcus pneumoniae, strain 23, ParC S79-Y, ParE None, GyrA S83-A, GyrB None): 2 µg/mL (≈ 4.8 µM)
MIC Range ([1]; agar dilution, 28 strains with ciprofloxacin MICs ≧8.0 μg/ml): 0.25 to 8 µg/mL
concentration at which bactericidal after 24 h ([2]; 12 penicillin susceptible and resistant pneumococcal strains, 24 h, bactericidal = ≧3 log10 cfu/ml (99.9%) reduction): 4 ×MIC
bactericidal activity for the two quinolone resistant pneumococcal strains ([2]; two quinolone resistant strains): bactericidal at the microbroth MIC
